Experiments:
[1] = target: T1, human bradykinin 1 receptor (B1R) (Homo sapiens, UniProt P46663); experiment: FLIPR Ca2+ assay, B1R antagonism, human; assay type: cell-based; conditions: 10 μM test substance, CHO K1 cells with human B1R gene (hB1R cells), Lys-Des-Arg9-bradykinin at EC80, % inhibition compared with the maximum achievable inhibition; for inhibition at 10 µM: read-out: B1R antagonism, human [10 μM] % inhibition
T1 construct: expressed in transfected cells
T1 sequence (P46663 1-353): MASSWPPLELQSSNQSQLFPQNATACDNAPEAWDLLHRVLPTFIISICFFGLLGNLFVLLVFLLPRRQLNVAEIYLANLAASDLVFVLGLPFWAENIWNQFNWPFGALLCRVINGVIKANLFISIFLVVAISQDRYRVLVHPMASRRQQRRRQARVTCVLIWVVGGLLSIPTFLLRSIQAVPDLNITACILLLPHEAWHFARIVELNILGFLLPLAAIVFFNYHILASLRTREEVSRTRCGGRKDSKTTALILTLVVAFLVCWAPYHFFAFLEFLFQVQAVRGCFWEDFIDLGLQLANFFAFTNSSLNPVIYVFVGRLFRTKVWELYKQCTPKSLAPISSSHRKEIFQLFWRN
Outline: (§1)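 Antagonism is given as % of maximum achievable suppression of agonist-evoked Ca2+ influx, measured by Fluo-4 peak fluorescence in FLIPR. Stable hB1R or rB1R CHO K1 lines received 10 μM compound for 10-20 min before EC80 Lys-Des-Arg9-bradykinin (human) or Des-Arg9-bradykinin (rat).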

[2] = target: T2, bradykinin 1 receptor (B1R) of the rat (Rattus norvegicus, UniProt P97583); experiment: FLIPR Ca2+ assay, B1R antagonism, rat; assay type: cell-based; conditions: CHO K1 cells with rat B1R gene (rB1R cells), Des-Arg9-bradykinin at EC80, % inhibition compared with the maximum achievable inhibition; for inhibition at 10 µM: CHO-K1, 10 μM test substance, read-out: B1R antagonism, rat [10 μM] % inhibition
T2 construct: expressed in transfected cells
T2 sequence (P97583 1-337): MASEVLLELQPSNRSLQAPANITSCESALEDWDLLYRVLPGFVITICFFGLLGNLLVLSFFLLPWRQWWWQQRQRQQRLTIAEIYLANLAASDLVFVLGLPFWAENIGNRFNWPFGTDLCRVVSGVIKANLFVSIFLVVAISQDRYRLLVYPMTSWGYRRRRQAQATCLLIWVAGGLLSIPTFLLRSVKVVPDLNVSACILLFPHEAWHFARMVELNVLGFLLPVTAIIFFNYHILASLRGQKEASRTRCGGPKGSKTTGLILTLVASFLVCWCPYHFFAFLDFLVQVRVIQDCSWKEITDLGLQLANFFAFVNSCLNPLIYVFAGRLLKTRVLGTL
Outline: as §1

Row | inhibition at 10 µM [1] [%] | inhibition at 10 µM [2] [%] | B1R antagonism, human [10 μM] % inhibition ([1]; 10 µM) [%] | B1R antagonism, rat [10 μM] % inhibition ([2]; 10 μM test substance, 10 µM) [%] | SMILES
1 | 100 | 102 |  |  | COc1cc(C)c(S(=O)(=O)N2CCCCC2COCCC(=O)N2CCC(OCCN3CCCC3)(c3cccnc3)CC2)c(C)c1 (stereo not shown) [Example 119, 3-[[1-[(4-methoxy-2,6-dimethyl-phenyl)sulfonyl]-piperidin-2-yl]-methoxy]-1-[4-pyridin-3-yl-4-(2-pyrrolidin-1-yl-ethoxy)-piperidin-1-yl]-propan-1-one]
2 | 21 | 97 |  |  | CN1CCN(CCCOC2(c3cccnc3)CCN(C(=O)CC3CCCCN3S(=O)(=O)c3cccc(C(F)(F)F)c3)CC2)CC1 (stereo not shown) [Example 35, 1-(4-(3-(4-methylpiperazin-1-yl)propoxy)-4-(pyridin-3-yl)piperidin-1-yl)-2-(1-(3-(trifluoromethyl)phenylsulfonyl)piperidin-2-yl)ethanone]
3 | 100 | 103 |  |  | COc1cc(C)c(S(=O)(=O)N2c3ccccc3OCC2COCC(=O)N2CCC(OCCN3CCCC3)(c3ccncc3)CC2)c(C)c1 (stereo not shown) [Example 108, 2-[[4-[(4-methoxy-2,6-dimethyl-phenyl)sulfonyl]-3,4-dihydro-2H-[1,4]benzoxazin-3-yl]-methoxy]-1-[4-pyridin-4-yl-4-(2-pyrrolidin-1-yl-ethoxy)-piperidin-1-yl]-ethanone]
4 | 100 | 97 |  |  | COc1cc(C)c(S(=O)(=O)N(C)CCOCC(=O)N2CCC(OCCN3CCCC3)(c3cccc(F)c3)CC2)c(C)c1 [Example 81, N-[2-[2-[4-(3-fluorophenyl)-4-(2-pyrrolidin-1-yl-ethoxy)-piperidin-1-yl]-2-oxo-ethoxy]-ethyl]-4-methoxy-N,2,6-trimethyl-benzenesulfonic acid amide]
5 | 103 | 52 |  |  | O=C(CC(NS(=O)(=O)c1ccc2ccccc2c1)c1ccccc1)N1CCC(OCCN2CCCCC2)(c2cccnc2)CC1 (stereo not shown) [Example 11, N-(3-oxo-1-phenyl-3-(4-(2-(piperidin-1-yl)ethoxy)-4-(pyridin-3-yl)piperidin-1-yl)propyl)naphthalene-2-sulfonamide]
6 | 100 | 102 |  |  | COc1cc(C)c(S(=O)(=O)N2CCCC[C@H]2COCC(=O)N2CCC(OCCn3cncn3)(c3cccnc3)CC2)c(C)c1 [Example 59, 2-[[(2S)-1-[(4-methoxy-2,6-dimethyl-phenyl)sulfonyl]-piperidin-2-yl]-methoxy]-1-[4-pyridin-3-yl-4-[2-(1H-[1,2,4]triazol-1-yl)-ethoxy]-piperidin-1-yl]-ethanone]
7 | 99 | 100 |  |  | COc1cc(C)c(S(=O)(=O)N(C)CCOCC(=O)N2CCC(OCCCN3CCN(C)CC3)(c3cccnc3)CC2)c(C)c1 [Example 34, 4-methoxy-N,2,6-trimethyl-N-(2-(2-(4-(3-(4-methylpiperazin-1-yl)propoxy)-4-(pyridin-3-yl)piperidin-1-yl)-2-oxoethoxy)ethyl)benzenesulfonamide]
8 | 100 | 101 |  |  | COc1cc(C)c(S(=O)(=O)N(CCOCC(=O)N2CCC(OCCN3CCCC3)(c3cccnc3)CC2)C2CC2)c(C)c1 [Example 3, N-cyclopropyl-4-methoxy-2,6-dimethyl-N-(2-(2-oxo-2-(4-(pyridin-3-yl)-4-(2-(pyrrolidin-1-yl)ethoxy)piperidin-1-yl)ethoxy)ethyl)benzenesulfonamide]
9 | 95 | 102 |  |  | O=C(CC(NS(=O)(=O)c1ccc2ccccc2c1)c1ccccc1)N1CCC(OCCCN2CCCC2)(c2cccnc2)CC1 (stereo not shown) [Example 44, N-(3-oxo-1-phenyl-3-(4-(pyridin-3-yl)-4-(3-(pyrrolidin-1-yl)propoxy)piperidin-1-yl)propyl)naphthalene-2-sulfonamide]
10 | 57 | 46 |  |  | O=C(CC1CCCCN1S(=O)(=O)c1cccc(C(F)(F)F)c1)N1CCC(OCCCN2CCCCC2)(c2cccnc2)CC1 (stereo not shown) [Example 23, 1-(4-(3-(piperidin-1-yl)propoxy)-4-(pyridin-3-yl)piperidin-1-yl)-2-(1-(3-(trifluoromethyl)phenylsulfonyl)piperidin-2-yl)ethanone]
11 | 76 | 103 |  |  | O=C(COCC1CCc2ccccc2N1S(=O)(=O)c1ccc(Cl)c(Cl)c1)N1CCC(OCCCN2CCCC2)(c2cccnc2)CC1 (stereo not shown) [Example 45, 2-((1-(3,4-dichlorophenylsulfonyl)-1,2,3,4-tetrahydroquinolin-2-yl)methoxy)-1-(4-(pyridin-3-yl)-4-(3-(pyrrolidin-1-yl)propoxy)piperidin-1-yl)ethanone]
12 | 99 | 105 |  |  | Cc1cccc(Cl)c1S(=O)(=O)N1CCCC[C@H]1COCC(=O)N1CCC(OCCN2CCCC2)(c2cccnc2)CC1 [Example 48, (S)-2-((1-(2-chloro-6-methylphenylsulfonyl)piperidin-2-yl)methoxy)-1-(4-(pyridin-3-yl)-4-(2-(pyrrolidin-1-yl)ethoxy)piperidin-1-yl)ethanone]
13 |  |  | 100 | 102 | COc1cc(C)c(S(=O)(=O)N(C)CCOCC(=O)N2CCC(OCCN3CCCC3)(c3cccnc3)CC2)c(C)c1 [Example 80, 4-methoxy-N,2,6-trimethyl-N-[2-[2-oxo-2-[4-pyridin-3-yl-4-(2-pyrrolidin-1-yl-ethoxy)-piperidin-1-yl]-ethoxy]-ethyl]-benzenesulfonic acid amide]
14 | 100 | 103 |  |  | COc1cc(C)c(S(=O)(=O)N(C)CCOCC(=O)N2CCC(OCCN3CCCC3)(c3cccnc3)CC2)c(C)c1C [Example 113, 4-methoxy-N,2,3,6-tetramethyl-N-[2-[2-oxo-2-[4-pyridin-3-yl-4-(2-pyrrolidin-1-yl-ethoxy)-piperidin-1-yl]-ethoxy]-ethyl]-benzenesulfonic acid amide]
15 | 100 | 104 |  |  | COc1cc(C)c(S(=O)(=O)N2CCCC[C@H]2COCC(=O)N2CCC(OCCN3CCCC3)(c3cccnc3)C2)c(C)c1 (stereo partly drawn) [Example 50, 2-(((S)-1-(4-methoxy-2,6-dimethylphenylsulfonyl)piperidin-2-yl)methoxy)-1-(3-(pyridin-3-yl)-3-(2-(pyrrolidin-1-yl)ethoxy)pyrrolidin-1-yl)ethanone]
16 | 100 | 102 |  |  | COc1cc(C)c(S(=O)(=O)N2CCCC[C@H]2COCC(=O)N2CCC(OCCn3ccnc3)(c3cccnc3)CC2)c(C)c1 [Example 60, 1-[4-[2-(1H-imidazol-1-yl)-ethoxy]-4-pyridin-3-yl-piperidin-1-yl]-2-[[(2S)-1-[(4-methoxy-2,6-dimethyl-phenyl)sulfonyl]-piperidin-2-yl]-methoxy]-ethanone]
17 | 85 | 93 |  |  | Cc1cc(S(=O)(=O)N2CCCCC2CCC(=O)N2CCC(OCCCN3CCN(C)CC3)(c3cccnc3)CC2)c(C)cc1Cl (stereo not shown) [Example 36, 3-(1-(4-chloro-2,5-dimethylphenylsulfonyl)piperidin-2-yl)-1-(4-(3-(4-methylpiperazin-1-yl)propoxy)-4-(pyridin-3-yl)piperidin-1-yl)propan-1-one]
18 | 102 | 102 |  |  | COc1cc(C)c(S(=O)(=O)N2CCCCC2COCC(=O)N2CCC(OCCCN3CCCCC3)(c3cccnc3)CC2)c(C)c1 (stereo not shown) [Example 17, 2-((1-(4-methoxy-2,6-dimethylphenylsulfonyl)piperidin-2-yl)methoxy)-1-(4-(3-(piperidin-1-yl)propoxy)-4-(pyridin-3-yl)piperidin-1-yl)ethanone]
19 | 100 | 99 |  |  | COc1cc(C)c(S(=O)(=O)N2CCCCC2COCCC(=O)N2CCC(OCCN3CCCC3)(c3cccc(F)c3)CC2)c(C)c1 (stereo not shown) [Example 121, 1-[4-(3-fluorophenyl)-4-(2-pyrrolidin-1-yl-ethoxy)-piperidin-1-yl]-3-[[1-[(4-methoxy-2,6-dimethyl-phenyl)sulfonyl]-piperidin-2-yl]-methoxy]-propan-1-one]
20 | 63 | 98 |  |  | CN1CCN(CCOC2(c3cccnc3)CCN(C(=O)CC(NS(=O)(=O)c3ccc4ccccc4c3)c3ccccc3)CC2)CC1 (stereo not shown) [Example 32, N-(3-(4-(2-(4-methylpiperazin-1-yl)ethoxy)-4-(pyridin-3-yl)piperidin-1-yl)-3-oxo-1-phenylpropyl)naphthalene-2-sulfonamide]
